The values that follow come from patent publication EP4471048A1, “PEPTIDE INHIBITORS OF INTERLEUKIN-23 RECEPTOR” (Zealand Pharma A/S, priority 2023, dated 2024).

The nature of data set [1]: Peptide stability in simulated intestinal fluid (SIF). The format is in vitro ADME. Particulars: 10 µM, 37 °C, porcine pancreatin. On the procedure: (§1) SGF was prepared by dissolving sodium chloride (0.2 g) in 50 mL of water. A volume of 0.7 mL of 10 M HCl was added to adjust the pH of the solution to 1.2 and the volume made up to 100 mL with water. […] SIF was prepared by dissolving monobasic potassium phosphate (0.68 g) in 50 mL of water and adjusting the pH to 6.8 with 1 M NaOH. The volume was subsequently made up to 100 mL with water. 200 mg porcine pancreatin (P1625, Sigma Aldrich) was gently dissolved into 20 mL preheated (37 °C) solution (10 g/L) immediately prior to the incubation.
(§2) The incubation was performed at 37 °C with gentle shaking. […] After the last timepoint, the sampling plate was mixed for 10 min on a shaking table and centrifuged 10 min at 2200 g. 70 µL resulting supernatant was diluted with 150 µL water, mixed and centrifugated before analysis by liquid chromatography high resolution mass spectrometry. […] Percent remaining at each timepoint was calculated relative to timepoint zero based on absolute peak areas.
Compounds with a SIF stability (after 4 h) above 70% are considered highly SIF stable.

The nature of data set [2]: Peptide stability in simulated gastric fluid (SGF). The format is in vitro ADME. Particulars: 10 µM, 37 °C, porcine pepsin. On the procedure: as §1, §2
Compounds with a SGF stability (after 4 h) above 70% are considered highly SGF stable. […] Table 3-4: SGF data

For another data set, the target named is T1, human IL-23R (Homo sapiens, UniProt Q5VWK5).
T1 sequence (Q5VWK5 22-629): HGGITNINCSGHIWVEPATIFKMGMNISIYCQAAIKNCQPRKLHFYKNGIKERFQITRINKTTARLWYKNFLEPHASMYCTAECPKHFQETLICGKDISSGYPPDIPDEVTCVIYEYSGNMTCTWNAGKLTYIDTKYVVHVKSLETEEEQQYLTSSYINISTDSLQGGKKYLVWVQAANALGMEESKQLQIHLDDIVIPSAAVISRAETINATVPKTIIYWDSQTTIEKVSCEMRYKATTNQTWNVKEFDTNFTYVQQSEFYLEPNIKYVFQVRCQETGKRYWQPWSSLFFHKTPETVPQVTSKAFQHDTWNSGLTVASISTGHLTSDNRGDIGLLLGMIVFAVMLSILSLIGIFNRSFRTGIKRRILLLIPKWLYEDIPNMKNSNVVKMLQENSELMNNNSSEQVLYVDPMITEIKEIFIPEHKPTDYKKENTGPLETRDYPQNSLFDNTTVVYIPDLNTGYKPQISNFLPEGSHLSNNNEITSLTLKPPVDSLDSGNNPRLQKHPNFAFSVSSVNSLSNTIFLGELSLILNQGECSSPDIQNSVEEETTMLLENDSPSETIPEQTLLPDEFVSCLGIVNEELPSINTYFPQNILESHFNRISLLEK
Put plainly: biochemical. As to conditions: for Emax: read-out: % displacement (hIL-23R NIuc). An outline of the steps:
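Membranes from HEK293 cells stably expressing Nluc-tagged human IL-23R were incubated 2 h at room temperature with test compound and a fluorophore-labelled tracer. After substrate addition, loss of BRET (TAMRA over luciferase emission) reported tracer displacement. A 4PL fit gave IC50 values.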

The structures appear in SMILES notation. *1 amine or outer side, *2 acyl side, *3 side chain or, on linkers, in order; H or OH if unused. Where a SMILES comes first, the peptide text is derived from it. Bridges are numbered along the chain shown (N, C = ends). [ ]: non-standard residue; d: D form. X14 = O=C(CC[C@H](N[*:2])C(=O)[*:3])[*:1]; X8 = O=C(CC[C@@H](N[*:2])C(=O)[*:3])[*:1]; 2Nal = N[C@@H](Cc1ccc2ccccc2c1)C(=O)O; AEF = NCCOc1ccc(C[C@H](N)C(=O)O)cc1; X1 = O=C(Cc1ccc(CN[*:1])cc1)[*:2]; 3Pal = N[C@@H](Cc1cccnc1)C(=O)O; αMeL = CC(C)C[C@](C)(N)C(=O)O; CH2COCH2 = O=C(C[*:1])C[*:2]; NMeS = CN[C@@H](CO)C(=O)O; Dab = NCC[C@H](N)C(=O)O; βAla = NCCC(=O)O

Take `CC(C)C[C@@H]1NC(=O)[C@H](Cc2c[nH]c3ccccc23)NC(=O)[C@H](Cc2c[nH]c3ccccc23)NC(=O)[C@@H]2CSCC(=O)CSC[C@H](NC(=O)[C@H](CO)NC(=O)[C@@H](NC(=O)[C@@H](N)CC(=O)O)CSCC(=O)CSC[C@@H](C(=O)N[C@@H](CCCNC(=N)N)C(N)=O)NC1=O)C(=O)N[C@@H](Cc1c[nH]c3ccccc13)C(=O)N[C@@H](CCC(N)=O)C(=O)N2` (single isomer, unassigned) [I3 (isomer 3), H-DC(1a)SC(2a)WQC(2a)WWLC(1a)R-[NH2], reference compound]: the “SIF (% remaining 1 h)” value in data set [1] (pH 6.8, 1 h) is 0%. The “SIF (% remaining 4 h)” value in data set [1] (pH 6.8, 4 h) was 0%. Also, the “SGF (% remaining 1 h)” value in data set [2] (pH 1.2, 1 h) is listed as 5%. Moreover, the “SGF (% remaining 4 h)” value in data set [2] (pH 1.2, 4 h) is reported as 0%.
A word on the IC50: it is the concentration needed to halve the response being measured. A higher IC50 goes with lower potency. Regarding `CNC(=O)[C@H](Cc1cccnc1)NC(=O)[C@H](CCN)NC(=O)[C@@H]1CCC(=O)NCCCC[C@H]2CC(=O)N[C@@H](Cc3c[nH]c4ccccc34)C(=O)N[C@@H](CCC(N)=O)C(=O)N[C@@H](CCC(=O)N2)C(=O)N[C@@H](Cc2ccc(OCCN)cc2)C(=O)N[C@@H](Cc2ccc3ccccc3c2)C(=O)N[C@@](C)(CC(C)C)C(=O)N1` [Compound 101, [beta-hLys](1c)(6c)^†WQE(6c)[Y(2-aminoethoxy)][2-Nal][2-Me-Leu]E(1c)[Dab][3-(3-Pyridyl)-Ala]-[NHMe]], on human IL-23R, the 50% inhibitory concentration (IC50) is 30 nM and the Emax came out at 103%.
For `CNC(=O)[C@H](Cc1cccnc1)NC(=O)[C@H](CCN)NC(=O)[C@@H]1CCC(=O)N[C@H]2CCCCNC(=O)CC[C@H](NC(=O)[C@H](CCC(N)=O)NC(=O)[C@H](Cc3c[nH]c4ccccc34)NC2=O)C(=O)N[C@@H](Cc2ccc(OCCN)cc2)C(=O)N[C@@H](Cc2ccc3ccccc3c2)C(=O)N[C@@](C)(CC(C)C)C(=O)N1` [Compound 102, [iso-Lys](1c)^t(6c)WQE(6c)[Y(2-aminoethoxy)][2-Nal][2-Me-Leu]E(1c)[Dab][3-(3-Pyridyl)-Ala]-[NHMe]] (KWQE[AEF][2Nal][αMeL]E[Dab][3Pal]-NHMe; lactam 1-4, N-8), at human IL-23R, the IC50 amounted to 4.5 nM and the Emax amounted to 97%.
The corresponding values for `CNC(=O)[C@H](Cc1cccnc1)NC(=O)[C@H](CCN)NC(=O)[C@@H]1CCC(=O)N[C@H]2CCNC(=O)CC[C@H](NC(=O)[C@H](CCC(N)=O)NC(=O)[C@H](Cc3c[nH]c4ccccc34)NC2=O)C(=O)N[C@@H](Cc2ccc(OCCN)cc2)C(=O)N[C@@H](Cc2ccc3ccccc3c2)C(=O)N[C@@](C)(CC(C)C)C(=O)N1` [Compound 103, [iso-Dab](1c)^†(6c)WQE(6c)[Y(2-aminoethoxy)][2-Nal][2-Me-Leu]E(1c)[Dab][3-(3-Pyridyl)-Ala]-[NHMe]] are 15 nM and 101%.
The like results for `CNC(=O)[C@H](Cc1cccnc1)NC(=O)[C@H](CCN)NC(=O)[C@@H]1CCC(=O)N[C@H]2CCNC(=O)CC[C@H](NC(=O)[C@H](CCC(N)=O)NC(=O)[C@H](Cc3c[nH]c4ccccc34)NC(=O)CNC2=O)C(=O)N[C@@H](Cc2ccc(OCCN)cc2)C(=O)N[C@@H](Cc2ccc3ccccc3c2)C(=O)N[C@@](C)(CC(C)C)C(=O)N1` [Compound 105, [iso-Dab](1c)^†(6c)GWQE(6c)[Y(2-aminoethoxy)][2-Nal][2-Me-Leu]E(1c)[Dab][3-(3-Pyridyl)-Ala]-[NHMe]] were, in that order, 11 nM and 101%.
For `CNC(=O)[C@H](Cc1cccnc1)NC(=O)[C@H](CCN)NC(=O)[C@@H]1CCCCNC(=O)[C@@H]2CCC(=O)N[C@@H](Cc3c[nH]c4ccccc34)C(=O)N[C@@H](CCC(N)=O)C(=O)N[C@@H](CCC(=O)N2)C(=O)N[C@@H](Cc2ccc(OCCN)cc2)C(=O)N[C@@H](Cc2ccc3ccccc3c2)C(=O)N[C@@](C)(CC(C)C)C(=O)N1` [Compound 106, [iso-Glu](1c)^‡(6c)^†WQE(6c)[Y(2-aminoethoxy)][2-Nal][2-Me-Leu]K(1c)[Dab][3-(3-Pyridyl)-Ala]-[NHMe]] (WQE[AEF][2Nal][αMeL]K[Dab][3Pal]-NHMe; linker N-3-7 via X14), at human IL-23R, the “% displacement (hIL-23R NIuc)” value was 99% and the IC50 was 2.5 nM.
`CNC(=O)[C@H](Cc1cccnc1)NC(=O)[C@H](CCN)NC(=O)[C@@H]1CCNC(=O)[C@@H]2CCC(=O)N[C@@H](Cc3c[nH]c4ccccc34)C(=O)N[C@@H](CCC(N)=O)C(=O)N[C@@H](CCC(=O)N2)C(=O)N[C@@H](Cc2ccc(OCCN)cc2)C(=O)N[C@@H](Cc2ccc3ccccc3c2)C(=O)N[C@@](C)(CC(C)C)C(=O)N1` [Compound 107, [iso-Glu](1c)^‡(6c)^†WQE(6c)[Y(2-aminoethoxy)][2-Nal][2-Me-Leu][Dab](1c)[Dab][3-(3-Pyridyl)-Ala]-[NHMe]] (WQE[AEF][2Nal][αMeL][Dab][Dab][3Pal]-NHMe; linker N-3-7 via X14): at human IL-23R, the Emax is 97%.
As to `CNC(=O)[C@H](Cc1cccnc1)NC(=O)[C@H](CCN)NC(=O)[C@@H]1CCCCNC(=O)[C@H]2CCC(=O)N[C@@H](Cc3c[nH]c4ccccc34)C(=O)N[C@@H](CCC(N)=O)C(=O)N[C@@H](CCC(=O)N2)C(=O)N[C@@H](Cc2ccc(OCCN)cc2)C(=O)N[C@@H](Cc2ccc3ccccc3c2)C(=O)N[C@@](C)(CC(C)C)C(=O)N1` [Compound 108, [{d}iso-Glu](1c)^‡(6c)^†WQE(6c)[Y(2-aminoethoxy)][2-Nal][2-Me-Leu]K(1c)[Dab][3-(3-Pyridyl)-Ala]-[NHMe]] (WQE[AEF][2Nal][αMeL]K[Dab][3Pal]-NHMe; linker N-3-7 via X8), on human IL-23R, the IC50 came to 16 nM and the Emax stood at 101%.
Consider `CNC(=O)[C@H](Cc1cccnc1)NC(=O)[C@H](CCN)NC(=O)[C@@H]1CCNC(=O)[C@H]2CCC(=O)N[C@@H](Cc3c[nH]c4ccccc34)C(=O)N[C@@H](CCC(N)=O)C(=O)N[C@@H](CCC(=O)N2)C(=O)N[C@@H](Cc2ccc(OCCN)cc2)C(=O)N[C@@H](Cc2ccc3ccccc3c2)C(=O)N[C@@](C)(CC(C)C)C(=O)N1` [Compound 109, [{d}iso-Glu](1c)^‡(6c)^†WQE(6c)[Y(2-aminoethoxy)][2-Nal][2-Me-Leu][Dab](1c)[Dab][3-(3-Pyridyl)-Ala]-[NHMe]] (WQE[AEF][2Nal][αMeL][Dab][Dab][3Pal]-NHMe; linker N-3-7 via X8), for which, on human IL-23R, the IC50 was 26 nM and the Emax worked out at 96%.
Consider `CNC(=O)[C@H](Cc1cccnc1)NC(=O)[C@H](CCN)NC(=O)[C@@H]1CCC(=O)NCCCC[C@@H]2NC(=O)CC[C@H](NC(=O)[C@H](CCC(N)=O)NC(=O)[C@H](Cc3c[nH]c4ccccc34)NC(=O)CCNC2=O)C(=O)N[C@@H](Cc2c[nH]c3ccccc23)C(=O)N[C@@H](Cc2ccc3ccccc3c2)C(=O)N[C@@](C)(CC(C)C)C(=O)N1` [Compound 110, K(1c)(6c)^†[3-Aminopropanoyl]WQE(6c)W[2-Nal][2-Me-Leu]E(1c)[Dab][3-(3-Pyridyl)-Ala]-[NHMe]] (K[βAla]WQEW[2Nal][αMeL]E[Dab][3Pal]-NHMe; lactam 1-9, N-5), for which, at human IL-23R, the IC50 turned out to be 0.079 nM and the Emax was found to be 100%.
As to `CC(C)C[C@]1(C)NC(=O)[C@H](Cc2ccc3ccccc3c2)NC(=O)[C@H](Cc2ccc(OCCN)cc2)NC(=O)[C@@H]2CSCC(=O)CSC[C@H](NC(=O)[C@H](CO)N(C)C(=O)Cc3ccc(cc3)CNC(=O)CC[C@@H](C(=O)N[C@@H](CCN)C(N)=O)NC1=O)C(=O)N[C@@H](Cc1c[nH]c3ccccc13)C(=O)N[C@@H](CCC(N)=O)C(=O)N2` [Ref 141, [4-Aminomethyl-phenylacetyl](1c)*[N-Me-Ser]C(2a)WQC(2a)[Y(2-aminoethoxy)][2-Nal][2-Me-Leu]E(1c)[Dab]-[NH2], reference compound] ([X1][NMeS]CWQC[AEF][2Nal][αMeL]E[Dab]-NH2; linker 3-6 via CH2COCH2; lactam N-10), on human IL-23R, the “% displacement (hIL-23R NIuc)” value is 102% and the IC50 was found to be 3.5 nM.
